Our source for the Crop_yield and Activity values is ChEMBL document CHEMBL3046685, “Otebo bean (Phaseolus vulgaris) sensitivity to pre-emergence herbicides” (Crop Prot, 2006).

Data set [1] concerns Phaseolus vulgaris. Briefly: Increase in Phaseolus vulgaris (otebo bean) yield at 1000 g ai/ha applied as spray during pre-emergence treatment for 1 to 2 days (reference value: 3.8 t/ha). It counts as functional.
Data set [2] has as its system Phaseolus vulgaris. Briefly: Phytotoxicity in Phaseolus vulgaris (otebo bean) assessed as visual injury at 2000 g ai/ha applied as spray during pre-emergence treatment for 1 to 2 days measured 14 days post emergence relative to untreated control. To be noted: in vivo, other. The data set is classed as organism-based.
Data set [3] relates to Phaseolus vulgaris. Briefly: Phytotoxicity in Phaseolus vulgaris (otebo bean) assessed as visual injury at 1000 g ai/ha applied as spray during pre-emergence treatment for 1 to 2 days measured 7 days post emergence relative to untreated control. Particulars: in vivo, other. The data set is classed as organism-based.
The test system of data set [4] is Phaseolus vulgaris. Briefly: Phytotoxicity in Phaseolus vulgaris (otebo bean) assessed as shoot dry weight at 1000 g ai/ha applied as spray during pre-emergence treatment for 1 to 2 days measured 42 days post emergence (reference value: 164 g). It counts as organism-based. To be noted: in vivo, other.
Data set [5] has as its system Phaseolus vulgaris. In words: Phytotoxicity in Phaseolus vulgaris (otebo bean) assessed as visual injury at 1000 g ai/ha applied as spray during pre-emergence treatment for 1 to 2 days measured 14 days post emergence relative to untreated control. To be noted: in vivo, other. The data set is classed as organism-based.
Data set [6] relates to Phaseolus vulgaris. In words: Phytotoxicity in Phaseolus vulgaris (otebo bean) assessed as plant height at 1000 g ai/ha applied as spray during pre-emergence treatment for 1 to 2 days measured 28 days post emergence (reference value: 29 cm). It counts as organism-based. Particulars: in vivo, other.
In data set [7] the test system is Phaseolus vulgaris. Briefly: Phytotoxicity in Phaseolus vulgaris (otebo bean) assessed as visual injury at 2000 g ai/ha applied as spray during pre-emergence treatment for 1 to 2 days measured 7 days post emergence relative to untreated control. It counts as organism-based. To be noted: in vivo, other.
The test system of data set [8] is Phaseolus vulgaris. In words: Phytotoxicity in Phaseolus vulgaris (otebo bean) assessed as shoot dry weight at 2000 g ai/ha applied as spray during pre-emergence treatment for 1 to 2 days measured 42 days post emergence (reference value: 164 g). Particulars: in vivo, other. It counts as organism-based.
Data set [9] relates to Phaseolus vulgaris. In words: Phytotoxicity in Phaseolus vulgaris (otebo bean) assessed as plant height at 2000 g ai/ha applied as spray during pre-emergence treatment for 1 to 2 days measured 28 days post emergence (reference value: 29 cm). To be noted: in vivo, other. It counts as organism-based.
Data set [10] concerns Phaseolus vulgaris. Briefly: Increase in Phaseolus vulgaris (otebo bean) yield at 2000 g ai/ha applied as spray during pre-emergence treatment for 1 to 2 days (reference value: 3.8 t/ha). It counts as functional.
The test system of data set [11] is Phaseolus vulgaris. Briefly: Phytotoxicity in Phaseolus vulgaris (otebo bean) assessed as change in moisture content at 1000 to 2000 g ai/ha applied as spray during preemergence treatment for 1 to 2 days. To be noted: in vivo, other. The data set is classed as organism-based.
The test system of data set [12] is Phaseolus vulgaris. In words: Phytotoxicity in Phaseolus vulgaris (otebo bean) assessed as visual injury at 2000 g ai/ha applied as spray during pre-emergence treatment for 1 to 2 days measured 28 days post emergence relative to untreated control. It counts as organism-based. Particulars: in vivo, other.
The subject of data set [13] is Phaseolus vulgaris. In words: Phytotoxicity in Phaseolus vulgaris (otebo bean) assessed as visual injury at 1000 g ai/ha applied as spray during pre-emergence treatment for 1 to 2 days measured 28 days post emergence relative to untreated control. It counts as organism-based. To be noted: in vivo, other.
Data set [14] relates to Phaseolus vulgaris. Briefly: Phytotoxicity in Phaseolus vulgaris (otebo bean) assessed as visual injury at 2500 g ai/ha applied as spray during pre-emergence treatment for 1 to 2 days measured 28 days post emergence relative to untreated control. The data set is classed as organism-based. Particulars: in vivo, other.
Data set [15] has as its system Phaseolus vulgaris. Briefly: Phytotoxicity in Phaseolus vulgaris (otebo bean) assessed as shoot dry weight at 1250 g ai/ha applied as spray during pre-emergence treatment for 1 to 2 days measured 42 days post emergence (reference value: 164 g). The data set is classed as organism-based. Particulars: in vivo, other.
Data set [16] deals with Phaseolus vulgaris. In words: Phytotoxicity in Phaseolus vulgaris (otebo bean) assessed as change in moisture content at 1250 to 2500 g ai/ha applied as spray during preemergence treatment for 1 to 2 days. To be noted: in vivo, other. The data set is classed as organism-based.
In data set [17] the test system is Phaseolus vulgaris. Briefly: Phytotoxicity in Phaseolus vulgaris (otebo bean) assessed as visual injury at 1250 g ai/ha applied as spray during pre-emergence treatment for 1 to 2 days measured 28 days post emergence relative to untreated control. The data set is classed as organism-based. To be noted: in vivo, other.
Data set [18] concerns Phaseolus vulgaris. In words: Phytotoxicity in Phaseolus vulgaris (otebo bean) assessed as visual injury at 1250 g ai/ha applied as spray during pre-emergence treatment for 1 to 2 days measured 14 days post emergence relative to untreated control. It counts as organism-based. To be noted: in vivo, other.
In data set [19] the test system is Phaseolus vulgaris. Briefly: Phytotoxicity in Phaseolus vulgaris (otebo bean) assessed as plant height at 2500 g ai/ha applied as spray during pre-emergence treatment for 1 to 2 days measured 28 days post emergence (reference value: 29 cm). The data set is classed as organism-based. Particulars: in vivo, other.
For data set [20], the system named is Phaseolus vulgaris. In words: Phytotoxicity in Phaseolus vulgaris (otebo bean) assessed as visual injury at 2500 g ai/ha applied as spray during pre-emergence treatment for 1 to 2 days measured 7 days post emergence relative to untreated control. It counts as organism-based. To be noted: in vivo, other.
The test system of data set [21] is Vigna angularis. In words: Phytotoxicity in Vigna angularis (adzuki bean) assessed as reduction in shoot dry weight at 2500 g ai/ha applied prior to planting relative to control. To be noted: in vivo, other. It counts as organism-based. The arrangement: scale not given: the % may be the effect or the level left.
Data set [22] has as its system Phaseolus vulgaris. Briefly: Phytotoxicity in Phaseolus vulgaris (otebo bean) assessed as visual injury at 2500 g ai/ha applied as spray during pre-emergence treatment for 1 to 2 days measured 14 days post emergence relative to untreated control. It counts as organism-based. To be noted: in vivo, other.
In data set [23] the test system is Phaseolus vulgaris. Briefly: Phytotoxicity in Phaseolus vulgaris (otebo bean) assessed as visual injury at 1250 g ai/ha applied as spray during pre-emergence treatment for 1 to 2 days measured 7 days post emergence relative to untreated control. It counts as organism-based. To be noted: in vivo, other.
In data set [24] the test system is Vigna angularis. Briefly: Phytotoxicity in Vigna angularis (adzuki bean) assessed as visual injury at 2500 g ai/ha applied prior to planting relative to control. Particulars: in vivo, other. The data set is classed as organism-based.
The test system of data set [25] is Phaseolus vulgaris. Briefly: Increase in Phaseolus vulgaris (otebo bean) yield at 2500 g ai/ha applied as spray during pre-emergence treatment for 1 to 2 days (reference value: 3.8 t/ha). It counts as functional.
In data set [26] the test system is Phaseolus vulgaris. In words: Phytotoxicity in Phaseolus vulgaris (otebo bean) assessed as plant height at 1250 g ai/ha applied as spray during pre-emergence treatment for 1 to 2 days measured 28 days post emergence (reference value: 29 cm). It counts as organism-based. To be noted: in vivo, other.
The test system of data set [27] is Phaseolus vulgaris. In words: Phytotoxicity in Phaseolus vulgaris (otebo bean) assessed as shoot dry weight at 2500 g ai/ha applied as spray during pre-emergence treatment for 1 to 2 days measured 42 days post emergence (reference value: 164 g). The data set is classed as organism-based. Particulars: in vivo, other.
For data set [28], the system named is Vigna angularis. In words: Phytotoxicity in Vigna angularis (adzuki bean) assessed as reduction in crop yield at 2500 g ai/ha applied prior to planting relative to control. It counts as organism-based. Particulars: in vivo, other.
In data set [29] the test system is Phaseolus vulgaris. In words: Increase in Phaseolus vulgaris (otebo bean) yield at 1250 g ai/ha applied as spray during pre-emergence treatment for 1 to 2 days (reference value: 3.8 t/ha). The data set is classed as functional.

With `CC1(C)CON(Cc2ccccc2Cl)C1=O` [CLOMAZONE], the Crop_yield in [1] was 4.5 tons/ha; in data set [10], 4.1 tons/ha. In addition, the Activity in data set [2] is given as 12%; in data set [3] it was 5%; in data set [4] it was 143 g; in data set [5], 5%; in [6], 28 cm; in data set [7], 13%. In addition, the Activity was 123 g in [8]; 26 cm in [9]; “Non-toxic” in data set [11]; 9% in data set [12]; 2% in data set [13].

With `COCC(C)N(C(=O)CCl)c1c(C)csc1C` (centres undefined) [DIMETHENAMID], the Activity is on record as 1% in [14]; 167 g in [15]; “Non-toxic” in [16]; 0% in data set [17]; 1% in data set [18]; 29 cm in [19]. Besides, the Activity in data set [20] is recorded as 4%; in data set [21], 53%; in data set [22] it was 3%; in data set [23], 1%; in data set [24] it was 37%; in [26], 30 cm. Besides, the Activity in data set [27] worked out at 154 g. For the same compound, the results for the Crop_yield in [25], in [28] and in data set [29] were 4.5 tons/ha, 38% and 4.5 tons/ha, respectively.
